Here are results for five compounds from patent publication US20210353566A1, “THE USE OF CHOLINE SUPPLEMENTATION AS THERAPY FOR APOE4-RELATED DISORDERS” (Massachusetts Institute of Technology, priority 2020, published 2021).

In one data set the test system is APOE4-expressing yeast. As to the kind of experiment: Growth rate of APOE4-expressing yeast in minimal CSM media. The class given is cell-based. To be noted: ethanolamine 1 mM, choline chloride 1 mM, choline bitartrate 100 μg/ml, compared to APOE3 strain.
Data set [1] deals with APOE4 astrocytes. As to the kind of experiment: Intracellular TAGs and their unsaturation extracted from iPSC-derived astrocytes. The class given is cell-based, human. To be noted: CDP-choline 100 μM vs regular media. On the procedure:
(§1) Right, quantification of the lipid droplet number per cell (n=4 experiments). […] Lipid were extracted from APOE3 and APOE4 iPSC-derived astrocytes grown in a regular media or the media supplemented with CDP-choline (100 μM). Data is represented as mean±SD, n=3 experiments.

The test system of data set [2] is APOE4 astrocytes. As to the kind of experiment: Lipid droplet number (LipidTox) in iPSC-derived APOE4 astrocytes in supplemented media. The class given is cell-based, human. To be noted: for LD number per cell: APOE4 astrocytes, supplemented media (CDP-choline 100 μM) vs vehicle. On the procedure:
as §1

Another data set relates to EFAD mice. The source says:
FIGS. 7A-7C show graphs depicting mice weight over time. FIG. 7A depicts mice fed a high choline diet (3.4 g/kg choline chloride) and minimum recommended choline diet (0.7 g/kg choline chloride) for one month. FIG. 7B depicts mice fed a sub-recommended choline diet (0.1 g/kg choline chloride) compared to standard choline (1.1 g/kg choline chloride) for one month. FIG. 7C depicts mice fed a high choline diet (3.4 g/kg choline chloride) and minimum recommended choline diet (0.7 g/kg choline chloride) for three months.
The “EFAD” APOE knock-in mouse were selected, where the endogenous Apoe locus is replaced with the human isoform of APOE2, APOE3, or APOE4 in 5×FAD mice, and where APOE isoform effects on disease progression have been documented (Tai et al, 2017). Custom chow containing the National Research Council (NRC) minimum, (0.7 g/kg choline chloride) and NRC maximum (3.4 g/kg choline chloride) was manufactured and fed these to EFAD mice for 4-12 weeks (˜84 days).

The test system of another data set is APOE4 microglia. To be noted: interferon gamma. From the text:
Data is represented as mean±SD, n=3-5 (ANOVA with multiple comparisons, * p≤0.05, ** p≤0.01).
Many AD risk factors are expressed in microglia including APOE, which along with TREM2, coordinates the transition from homeostatic to disease-associated state (Kraseman et al, 2017; Keren-Shaul et al, 2017).

Data set [3] relates to APOE4 astrocytes. As to the kind of experiment: Lipid droplet quantification (LipidTox) in iPSC-derived astrocytes treated with oleic acid. To be noted: oleic acid 20 μM vs vehicle. The class given is cell-based, human. From the text:
(§2) FIG. 1A is a schematic depicting the use of isogenic astrocytes derived from patient-derived iPSCs and the lipidomic analysis. FIG. 1B is a heatmap showing the fold change (log 2) between APOE4/APOE4 and APOE3/APOE3 in abundance of phospholipids (˜150 lipid species, upper panel) and triglycerides (˜120 species, lower panel). FIG. 1C is a graph presenting a fold change difference of the number of unsaturated bonds in fatty acids attached to triglycerides (TAGs). […] Data is represented as mean±SD (Student's t-test, **** p≤0.0001). FIG. 1E is a fluorescent microscopy images of the APOE3/APOE3 and APOE4/APOE4 astrocytes stained with an anti-Perilipin 2 antibody. Right, quantification of the Perilipin-2 foci per cell (each point (n) is an average of four wells, n=4). Data is represented as mean±SD (Student's t-test, **** p≤0.0001). FIG. 1F is a quantification of lipid droplets in astrocytes treated with vehicle (control) or with oleic acid (20 μM) (n=4 experiments).
(§3) APOE is expressed in several organs, with the highest expression in the liver, followed by the brain. In the brain, astrocytes and to some extent microglia are the major cell types that express APOE in the brain (Kim, Basak et al. 2009). It was hypothesized that APOE4-mediated lipid dysregulation contributes to its role as a disease risk factor. […]

A further data set deals with APOE3 astrocytes. The data set is described as above. To be noted: oleic acid 20 μM vs vehicle. The class given is cell-based, human.
Text: as §2, §3

[4] abbreviates: chow 0.7 g/kg and 3.4 g/kg choline chloride, 4-12 weeks.
The mark [5] stands for this setting: diets 0.1, 0.7, 1.1, 3.4 g/kg choline chloride, one or three months.

Text for APOE4-expressing yeast: The data was normalized to the growth of untreated yeast strain expressing GFP (control). Data are represented as mean±SD, n=3. […] Data is represented as mean±SD, n=6 (Student's t-test, ns p>0.05; *** p≤0.001).
In order to explore APOE4-mediated lipid dysregulation in an unbiased manner, yeast were built and interrogated that express APOE3 or APOE4 in to the secretory pathway.

On to `C[N+](C)(C)CCO.O=C([O-])C(O)C(O)C(=O)O` (stereo not shown) [choline bitartrate], for which the “growth of APOE4 yeast in supplemented media” value (from here on “growth of APOE4 yeast”) with APOE4-expressing yeast was “sufficient to suppress the APOE4-associated growth defect”.

For `C[N+](C)(C)CCOP(=O)(O)OP(=O)([O-])OC[C@H]1O[C@@H](n2ccc(N)nc2=O)[C@H](O)[C@@H]1O` [CDP-choline], in the data set with APOE4 astrocytes [1], the “intracellular TAG levels” value is given as “normalizes” and the “unsaturation of TAGs (number of unsaturated bonds in fatty acids)” value is “normalizes”. Also, the “LD number per cell” value in the data set with APOE4 astrocytes [2] was “significant decrease in the LD number, down to the levels found in APOE3-expressing astrocytes”.

In the case of `NCCO` [ethanolamine], the “growth of APOE4 yeast” value with APOE4-expressing yeast is “did not influence growth”.

Turning to `C[N+](C)(C)CCO.[Cl-]` [choline chloride], the “LD number per cell” value in the data set with APOE4 astrocytes [2] was “significant decrease in the LD number, down to the levels found in APOE3-expressing astrocytes”. Besides, the “lipid droplet accumulation, dose dependence” value in the data set on APOE4 astrocytes [2] (choline chloride 1 μM, 10 μM, 100 μM in astrocyte media, extended culture 14 days) is reported as “improves lipid droplet accumulation in a dose-dependent manner”. In the data set on EFAD mice (setting [4]), the general health result is reported as “general health appeared normal” and the toxicity entry is “no clear indication of toxicity”. Further, in the data set on EFAD mice (setting [5]), the “body condition or appetite” value is reported as “no significant defects” and the “mice weight over time” value is reported as “gained appropriate weight”. Also, in the data set with APOE4 microglia (supplemented 65 μM Choline Chloride vs low 15 μM, extended culture), the “lipid droplet volume, APOE4 vs APOE3 microglia” value is “no difference is detected”. Further, the IL-1b induction result with APOE4 microglia (supplemented 250 μM Choline Chloride vs low 65 μM) is on record as “rescued”. Moreover, the “growth of APOE4 yeast” value in the data set with APOE4-expressing yeast is “sufficient to suppress the APOE4-associated growth defect”.

In the data set on APOE4 astrocytes [3], `CCCCCCCC/C=C\CCCCCCCC(=O)O` [oleic acid] yielded a lipid droplet accumulation of about 3 fold. Also, the “increase of lipid droplet content” value in the data set with APOE3 astrocytes is given as about 1.5 fold.
